{"source": "patent US7070768B2", "about": "“Method for imparting artificial tan to human skin” (Allergan, Inc., priority 2003, dated 2006)", "key": {"human skin": {"system": "human skin", "assay": "Oral bimatoprost tablets in a patient, skin color", "assay_type": "in vivo", "details": "oral tablet, 2 x 100 mg per dose, 3 doses per day, four months", "from_the_text": "A patient began taking bimatoprost as a tablet."}, "eyelashes": {"system": "eyelashes", "details": "Lumigan ophthalmic solution, applied in the FDA approved manner; cited from earlier work"}}}
{"substance": "cyclopentane N-ethyl heptanamide-5-cis-2-(3α-hydroxy-5-phenyl-1-trans-pentenyl)-3,5-dihydroxy, [bimatoprost, cyclopentane N-ethyl heptanamide-5-cis-2-(3α-hydroxy-5-phenyl-1-trans-pentenyl)-3,5-dihydroxy, [1α,2β,3α,5α]]", "values": [{"measurement": "skin color after treatment", "setting": "human skin", "value": "turned to a dark brown color"}, {"measurement": "growth of eyelashes", "setting": "eyelashes", "value": "effective to increase the growth of eyelashes"}]}
